Measurements as given in US4633014A, “Substituted 3-hydrazinopropionates” (priority 1983, dated 1986).

Assays:
white mice = experiment: in vivo
Experimental: (§1) The study of the effect provided by the compounds according to the present invention on the cardio-vascular system was carried out in experiments on white mice. The specific (antiarrhythmic) effect and acute toxicity were studied.
(§2) The acute toxicity of the compounds according to the present invention was determined in experiments on white mice with a mass of 20-25 g. The test compounds were administered intraperitoneally in the form of aqueous solutions or suspensions in Twin-80. Observation over the test animals was effected for 10 days.

in vivo = details: mouse, in vivo, ip
Experimental: as §1, §2

[1] = system: arrhythmia induced by an intravenous administration of calcium chloride; experiment: Antiarrhythmic activity on a model of arrhythmia induced by intravenous calcium chloride (antagonism to calcium) in mice; assay type: in vivo; details: white mice, 20-40 minutes before
Experimental: The specific (antiarrhythmic) effect and acute toxicity were studied.
The antiarrhythmic activity of the compounds according to the present invention was studied on a model of arrhythmia induced by an intravenous administration of calcium chloride. In experiments on white mice of both sexes with a mass of 18-25 g narcotized by urethane (1,200 mg/kg intraperitoneally) ECG in the second standard lead was recorded. A 2% solution of calcium chloride was introduced into the tail vein at a constant rate (0.01 ml for 2 sec). The dose of calcium chloride causing arrhythmia and the dose causing the heart arrest were determined. In the test groups the test compounds were administered intraperitoneally 20-40 minutes before the beginning of the experiment.

[2] = white mice, intraperitoneal, relative to quinidine

SMILES	Relative toxisity to quinidine (white mice; mouse, in vivo, ip, 14400 min)	LD50 at 240 h (in vivo) [mg/kg]	Dose of calcium chloride causing arrythmia in animals under experiment ([1]; intraperitoneal dose 5 mg/kg)	Dose of calcium chloride causing death in animals under experiment ([1]; intraperitoneal dose 5 mg/kg)	Dose of calcium chloride causing arrythmia in animals under experiment ([1]; intraperitoneal dose 15 mg/kg)	Dose of calcium chloride causing death in animals under experiment ([1]; intraperitoneal dose 15 mg/kg)	Relative toxisity to quinidine (white mice; [2])
CCCCCC(=O)N(CC(C)C(=O)OC)N(C)C (stereo not drawn) [I-38, 3-(2,2-dimethyl-1-hexanoylhydrazino)-2-methylmethylpropionate]	12,3	1930	102,0 mg/kg	115,8 mg/kg	96,5 mg/kg	120,0 mg/kg	–
COC(=O)C(C)CN(C(=O)c1ccccc1)N(C)C (stereo not drawn) [I-39, 3-(2,2-dimethyl-1-benzoylhydrazino)-2-methylmethylpropionate]	11,2	1750	88,7 mg/kg	111,3 mg/kg	100,0 mg/kg	121,5 mg/kg	–
COC(=O)C(C)CN(C(=O)c1ccccc1F)N(C)C (stereo not drawn) [I-40, 3-(2,2-dimethyl-1-2'-fluorobenzoylhydrazino)-2-methylmethylpropionate]	8,0	1400	93,5 mg/kg	115,0 mg/kg	103,3 mg/kg	118,6 mg/kg	–
COC(=O)C(C)CN(C(=O)c1ccc(Br)cc1)N(C)C (stereo not drawn) [I-41]	–	2430	90,6 mg/kg	110,0 mg/kg	102,5 mg/kg	122,0 mg/kg	15,5
CCOC(=O)CCN(C(C)=O)N(C)C [I-42, 3-(2,2-dimethyl-1-acetylhydrazino)ethylpropionate]	15,2	2380	87,5 mg/kg	112,0 mg/kg	103,0 mg/kg	115,0 mg/kg	–
CCCCCC(=O)N(CCC(=O)OCC)N(C)C [I-43, 3-(2,2-dimethyl-1-hexanoylhydrazino)ethylpropionate]	9,3	1460	94,0 mg/kg	105,0 mg/kg	108,5 mg/kg	120,3 mg/kg	–
CCOC(=O)CCN(C(=O)c1ccccc1)N(C)C [I-44, 3-(2,2-dimethyl-1-benzoylhydrazino)ethylpropionate]	10,5	1650	101,0 mg/kg	120,0 mg/kg	98,5 mg/kg	126,0 mg/kg	–
CCOC(=O)CCN(C(=O)c1ccccc1F)N(C)C [I-45, 3-/2,2-dimethyl-1-(2'-fluorobenzoyl)-hydrazino/ethylpropionate]	9,4	1480	95,0 mg/kg	112,5 mg/kg	102,8 mg/kg	125,0 mg/kg	–
CCOC(=O)CCN(C(=O)c1ccc(Br)cc1)N(C)C [I-46, 3-/2,2-dimethyl-1-(4'-bromobenzoyl)hydrazino/ethylpropionate]	9,6	1500	98,0 mg/kg	105,0 mg/kg	100,0 mg/kg	118,3 mg/kg	–
CC(=O)N(CCC(N)=O)N(C)C [I-47, 3-(2,2-dimethyl-1-acetylhydrazino)propionamide]	> 19,2	> 3000	103 mg/kg	118 mg/kg	108 mg/kg	125 mg/kg	–
CCCC(=O)N(CCC(N)=O)N(C)C [I-48, 3-(2,2-dimethyl-1-butyrylhydrazino)propionamide]	10,9	1700	88 mg/kg	101,8 mg/kg	95,3 mg/kg	109 mg/kg	–
CCCCCC(=O)N(CCC(N)=O)N(C)C [I-49, 3-(2,2-dimethyl-1-hexanoylhydrazino)propionamide]	6,1	960	101,3 mg/kg	120,5 mg/kg	108,6 mg/kg	136,8 mg/kg	–
CCCCCCCCCCCCCCCCCC(=O)N(CCC(N)=O)N(C)C [I-50, 3-(2,2-dimethyl-1-octadecanoylhydrazino)propionamide]	> 19,2	> 3000	102,4 mg/kg	118,0 mg/kg	118,6 mg/kg	142,5 mg/kg	–
CN(C)N(CCC(N)=O)C(=O)c1ccccc1 [I-51, 3-(2,2-dimethyl-1-benzoylhydrazino)propionamide]	20,1	3150	88,7 mg/kg	105,5 mg/kg	93,5 mg/kg	112,0 mg/kg	–
CN(C)N(CCC(N)=O)C(=O)CCO [I-52, 3-(2,2-dimethyl-1-γ-hydroxypropanoylhydrazino)propionamide]	> 19,2	> 3000	93 mg/kg	112,0 mg/kg	97,6 mg/kg	123,6 mg/kg	–
COC(=O)N(CCC(N)=O)N(C)C [I-53, 3-(2,2-dimethyl-1methoxycarbonylhydrazino)propionamide]	–	1880	98,5 mg/kg	132,0 mg/kg	121,0 mg/kg	138,5 mg/kg	12,0
CN(C)N(CCC#N)C(=O)c1ccccc1 [I-54, 3-(2,2-dimethyl-1-benzoylhydrazino)propionitrile]	6,6	1030	108,3 mg/kg	130,0 mg/kg	102,5 mg/kg	133,0 mg/kg	–
CNC(=O)N(C(CC(=O)OC)C(=O)OC)N(C)C (stereo not drawn) [I-55]	14,7	2300	88,7 mg/kg	112,5 mg/kg	111,5 mg/kg	135,0 mg/kg	–
COC(=O)CC(C(=O)OC)N(C(=O)Nc1ccccc1)N(C)C (stereo not drawn) [I-56]	20,5	3200	92,4 mg/kg	108,5 mg/kg	102,0 mg/kg	128,0 mg/kg	–
COC(=O)CC(C(=O)OC)N(C(=O)NCCCCCCNC(=O)N(C(CC(=O)OC)C(=O)OC)N(C)C)N(C)C (stereo not drawn) [I-57, 3-(2,2-dimethyl-1-/ε-(2-dimethylamino-2-dimethylsuccinato-2'-ylureido-1-yl)hexylcarbamoyl/hydrazino)-2-methoxycarbonylmethylpropionate]	> 19,2	> 3000	103,5 mg/kg	115,0 mg/kg	132,6 mg/kg	150,0 mg/kg	–
